# Assay results: the METLIN SMRT retention time set (Domingo-Almenara et al. 2019)
# Experiment: gradient 5% acetonitrile 3 min, to 50% in 2 min, to 85% in 15 min, held 3 min, 100 µL/min
# Conditions: column: Zorbax Extend-C18 2.1 x 50 mm; eluents: water / acetonitrile, 0.1% formic acid
# How it was run: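 Using water and acetonitrile that each contained 0.1% formic acid, mixtures of ~100 pure standards were separated at 100 μL/min on a Zorbax Extend-C18 column (2.1 × 50 mm, 1.8 μm). The HPLC fed a quadrupole time-of-flight mass spectrometer working in positive and negative ionization mode, with dead and dwell volumes of 40 μL and 900 μL. Data were acquired over 3 months. Retention time was read from computationally picked adduct peaks after manual inspection of each.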
row,RP-LC retention time,SMILES
1,811 s,O=C(NCc1noc(C2CCCC2)n1)C1CCCCC1
2,802 s,O=C(NCc1cc(F)cc(F)c1)C1CCN(C(=O)c2ncn3c2COC(c2ccc(F)cc2)C3)CC1 (configuration not stated)
3,635 s,O=C(Nc1ccc2c(c1)OCCO2)N1CCN(Cc2nc3cccnc3n2-c2ccccc2)CC1
4,728 s,COc1cccc(N2CCN(C(=O)C3CCN(c4cnc5nccnc5c4)CC3)CC2)c1
5,594 s,O=C1C=C(Nc2cccnc2)c2ccccc2C1=O
6,725 s,Cc1ccccc1N1CCN(C(=O)C2CC(=O)N(CCc3ccccc3)C2)CC1 (configuration not stated)
7,936 s,Cc1nc(Nc2ccc(F)cn2)sc1C(=O)NCCc1ccc(Cl)cc1
8,593 s,COc1cc(CN2CCC[C@H]2c2nc(C3CCOCC3)n[nH]2)cc(OC)c1
9,855 s,COc1ccccc1N1CCN(c2ccc3cc(S(=O)(=O)N4CCCC4)ccc3n2)CC1
10,666 s,O=C(c1cn(-c2ccc(S(=O)(=O)N3CCOCC3)cc2)cn1)N1CCN(c2ncccn2)CC1
11,576 s,CCCN1CCN(C(=O)c2nc3ccccn3c2-c2ccsc2)CC1
12,714 s,O=C(COc1ccc(Cl)cc1)N1C[C@H]2C[C@H](C1)[C@H]1CCCC(=O)N1C2
13,894 s,CCOCCOC(=O)C1=C(C)NC2=C(C(=O)C(C(=O)OC)C(C)C2)C1c1cccc(F)c1 (configuration not stated)
14,845 s,Clc1nnc(N2CCSCC2)c2ccccc12
15,699 s,O=C(CN1CCN(Cc2ccccc2F)C1=O)NCc1ccc(N2CCOCC2)cc1
16,783 s,CCN(CC)CCOc1ccc(Nc2ncc3cc(-c4c(Cl)cccc4Cl)c(=O)n(C)c3n2)cc1
17,715 s,CCOC(=O)c1c(C)[nH]c(C(=O)N2CCC(C(C)C(=O)N3CCCC3)CC2)c1C (configuration not stated)
18,606 s,Cc1noc(C)c1CN1CCN(C(=O)C(C)(C)Oc2ccc(Cl)cc2)CC1
19,596 s,CC(C)NC(=O)C1CCc2sc(C(=O)N3CCOCC3)cc2C1 (configuration not stated)
20,956 s,Cc1cc(OCC(=O)Nc2ccc(F)c(Cl)c2)nc(N2CCN(c3ccccc3)CC2)n1
21,960 s,COCCn1cc2c3c(cccc31)CN(C(=O)c1cccc(Cl)c1)CC2
22,585 s,O=C(NCc1cccnc1)c1ccc2c(c1)NC(=O)C1CCCCN21 (configuration not stated)
23,914 s,COc1ccc(-c2noc(Cc3nnc(-c4cccc(F)c4)o3)n2)cc1OC

row,RP-LC retention time,SMILES
1,859 s,COc1ccc(NC(=O)c2cccn2Cc2noc(C)n2)cc1Cl
2,610 s,CCOc1ccc(NC(=O)N2CCN(CCn3c(C(C)C)nc4cccnc43)CC2)cc1
3,740 s,CCn1cnc(S(=O)(=O)N2CCCC(C(=O)NC3CCCCCC3)C2)c1 (configuration not stated)
4,564 s,O=C(NCc1cccs1)C1CCN(c2cc(-n3ccnc3)ncn2)CC1
5,671 s,CC(=O)c1ccc(NC(=O)Cn2cnc3nc4c(cc3c2=O)CCCC4)cc1
6,703 s,COc1ccc(C(=O)N2CC(C(=O)NC3CC3)C(c3ccc(OC)cc3OC)C2)cc1 (configuration not stated)
7,730 s,Cc1ccccc1CC(=O)NC(C(=O)Nc1nc2ccccc2[nH]1)C(C)C (configuration not stated)
8,734 s,O=C(CCn1cnc2cc(-c3noc(CCc4c[nH]c5ccccc45)n3)ccc21)N1CCCC1
9,695 s,COc1ccccc1-n1cc(-c2ccccc2)c2c(NCCN(C)C)ncnc21
10,604 s,O=C(NC1CCCCC1)C1CCCN(c2ccncc2)C1 (configuration not stated)
11,1030 s,Cc1cc2nc(NCCCO)n(CC(=O)c3cc(C(C)(C)C)c(O)c(C(C)(C)C)c3)c2cc1C
12,704 s,COc1cc(C)c(C)cc1S(=O)(=O)NCC1(CO)CC1
13,677 s,CC(=O)N1CCc2cc(N3CC(C(=O)Nc4ccccc4)CC3=O)ccc21 (configuration not stated)
14,612 s,CN1C(=O)[C@H]2CN(Cc3cn[nH]c3-c3cccc(Br)c3)C[C@H]2C1=O
15,1040 s,CCOc1ccc(-c2noc(CN3C(=O)C(C)Oc4ccccc43)n2)cc1OC (configuration not stated)
16,845 s,CCCN1C(=O)CCc2cc(NS(=O)(=O)c3ccccc3C(=O)OC)ccc21
17,912 s,COc1cccc(-c2noc(C3CCCN3C(=O)C3CCC3)n2)c1 (configuration not stated)
18,767 s,O=C(NC1CCN(c2cc(-c3ccccc3)[nH]n2)C1)c1ccc(F)c(Cl)c1 (configuration not stated)
19,745 s,CCc1nnc(-c2ccc3ccn(CC(=O)NCc4ccc(OC)c(OC)c4)c3c2)o1
20,569 s,O=C(Cn1ccc2ccn(Cc3cccnc3)c2c1=O)N1CCOCC1
21,839 s,COc1ccc(C2CC(=O)N(c3cccc(F)c3)C(=O)C2)cc1OC
22,912 s,COCCn1cc2c3c(cccc31)CN(C(=O)NCCC(C)C)CC2
23,996 s,COc1cc(Cl)c(C)cc1NC(=O)C1CCCN(c2ncnc3c2nc2n3CCCCC2)C1 (configuration not stated)

row,RP-LC retention time,SMILES
1,835 s,Cc1ccc(S(=O)(=O)N2CCCN(c3ccc(=O)n(-c4ccccc4)n3)CC2)cc1
2,786 s,CS(=O)(=O)c1ccc2nc(Nc3nc4cc5c(cc4s3)OCO5)sc2c1
3,651 s,CCOc1ccccc1NC(=O)C1CCN(c2cncnc2N2CCOCC2)CC1
4,621 s,CCn1ccc(C(=O)Nc2c3c(nn2C)CCC3)n1
5,827 s,CC(Oc1cccc(Cl)c1)c1nc(-c2ccc3ncn(C)c3c2)no1 (configuration not stated)
6,664 s,COc1ccc(S(=O)(=O)N2CCC(C(=O)Nc3ncnc4c3CCC4)CC2)cc1
7,1120 s,Cc1ccc2oc(-c3noc(C(=O)NCc4ccc5c(c4)OCO5)n3)c(C)c2c1
8,567 s,Oc1c(C(c2ccccn2)N2CCN(c3ccccc3F)CC2)ccc2cccnc12 (configuration not stated)
9,817 s,O=C(Nc1ccc(N2CCN(C3CCCC3)C2=O)nc1)c1ccccc1
10,658 s,COc1ccc(OCc2noc(CNC(=O)CSc3nnnn3C)n2)cc1
11,619 s,COc1cc(OC)c(NC(=O)N(C)Cc2nc3cc(C(=O)N(C)C)ccc3n2C)cc1Cl
12,831 s,CCCN1C(=O)Cc2ccccc2C1C(=O)NCc1ccccc1Br (configuration not stated)
13,1100 s,CCCN1CCCCc2cc(C(=O)NC(C)CC)sc21 (configuration not stated)
14,644 s,CNC(=O)C1=CCN(C(=O)c2ccc(F)cc2F)CC1
15,896 s,CC(C)C(NC(=O)NCc1ccccc1)C(=O)N1CCc2ccccc21 (configuration not stated)
16,757 s,COc1ccc(CCC(=O)NCCCn2cccc2)cc1
17,970 s,CC(C)c1nc(N2CCCC2=O)sc1C(=O)NCc1ccc(F)cc1
18,816 s,Cc1cccc(Nc2c(-c3cccc(O)c3)nc3cnccn23)c1C
19,810 s,Cc1ccc(Nc2c(-c3ccc(Cl)cc3)nc3cccc(C)n23)cc1
20,570 s,CCCNc1cc(N2CCC(CCC(=O)N3CCN(c4ccccn4)CC3)CC2)ncn1
21,1120 s,O=S(=O)(c1ccc(-c2cnc(C3CCCC3)o2)s1)N1CCN(c2ncccn2)CC1
